By Kd is commonly meant the constant that tells how readily two partners part at equilibrium.

The source of these data is publication PMC3369218 (Biochemistry, 2012).

The target of one data set is WT DaCld (Dechloromonas aromatica, UniProt Q47CX0). Nature of the data set: Equilibrium binding of ligands, spectrophotometric titration, WT DaCld.
The target of another data set is DaCld(R183Q) (Dechloromonas aromatica, UniProt Q47CX0, R217Q). Nature of the data set: biochemical. Format: binding.
Another data set addresses DaCld(R183K) (Dechloromonas aromatica, UniProt Q47CX0, R217K). Nature of the data set: biochemical. The class given is binding.
Another data set has as its target DaCld(R183A) (Dechloromonas aromatica, UniProt Q47CX0, R217A). Nature of the data set: biochemical. The class given is binding.
For data set [1] the following is noted: cited from earlier work.

Where two headings read alike, the source gives them in different places.

Chain of WT DaCld (Q47CX0 32-282): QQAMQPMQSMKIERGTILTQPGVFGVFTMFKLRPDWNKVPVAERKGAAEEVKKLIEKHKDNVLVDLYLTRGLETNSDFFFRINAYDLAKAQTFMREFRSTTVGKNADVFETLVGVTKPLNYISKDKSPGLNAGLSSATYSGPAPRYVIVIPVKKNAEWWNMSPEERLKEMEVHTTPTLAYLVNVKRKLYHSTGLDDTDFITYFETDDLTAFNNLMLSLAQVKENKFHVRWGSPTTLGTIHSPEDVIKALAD
Chain of DaCld(R183A) (Q47CX0 35-282 R217A): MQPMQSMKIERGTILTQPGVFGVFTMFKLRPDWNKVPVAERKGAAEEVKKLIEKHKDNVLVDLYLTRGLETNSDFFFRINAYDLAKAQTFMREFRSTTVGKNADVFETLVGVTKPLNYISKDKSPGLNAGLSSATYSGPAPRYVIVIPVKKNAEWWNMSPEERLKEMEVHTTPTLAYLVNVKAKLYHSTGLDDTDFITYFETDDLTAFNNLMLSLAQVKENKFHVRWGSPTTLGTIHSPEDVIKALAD
Chain of DaCld(R183Q) (Q47CX0 35-282 R217Q): as the sequence (Q47CX0 35-282 R217A) above, with A183Q counted along it
Chain of DaCld(R183K) (Q47CX0 35-282 R217K): as the sequence (Q47CX0 35-282 R217A) above, with A183K counted along it

Regarding `[N-]=[N+]=[N-]` [N3^–, azide], the Kd at WT DaCld (read-out: Maximal KD, pH 7) amounted to 8.3 ± 0.1 µM.
As for `c1c[nH]cn1` [imidazole], the Kd came to 9.6 ± 0.3 µM on WT DaCld, 27 ± 1 µM at DaCld(R183Q), 18 ± 1 µM on DaCld(R183K) and 21 ± 1 µM on DaCld(R183A). In addition, the “pKa1 of pKD versus pH curve” value on DaCld(R183Q) was 6.7 ± 0.1; on DaCld(R183A), 6.8 ± 0.1.
For the compound Myoglobin, the reduction potential in data set [1] is reported as 46 mV.
